Target: T1, LXRβ (Homo sapiens, UniProt P55055)
T1 construct: Co-transfection expression plasmids, comprising full-length LXRα (pCMX-h LXRα[…] or LXRβ (pCMX-hLXRβ)); expressed in transfected cells; host or cells: CV-1 African Green Monkey Kidney Cells
T1 sequence (P55055 1-460): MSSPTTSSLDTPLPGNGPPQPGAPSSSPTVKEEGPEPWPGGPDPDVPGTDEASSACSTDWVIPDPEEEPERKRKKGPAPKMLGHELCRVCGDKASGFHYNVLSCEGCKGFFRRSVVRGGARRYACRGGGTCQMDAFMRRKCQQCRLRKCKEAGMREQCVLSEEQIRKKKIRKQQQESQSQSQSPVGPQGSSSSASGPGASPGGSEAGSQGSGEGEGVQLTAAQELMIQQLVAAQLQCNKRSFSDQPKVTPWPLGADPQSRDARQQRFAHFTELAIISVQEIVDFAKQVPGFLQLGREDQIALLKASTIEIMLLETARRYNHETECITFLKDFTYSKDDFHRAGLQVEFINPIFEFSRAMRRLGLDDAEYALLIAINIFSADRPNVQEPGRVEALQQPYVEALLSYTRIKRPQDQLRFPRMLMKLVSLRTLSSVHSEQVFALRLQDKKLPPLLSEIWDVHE
T1 sequence (P19793 1-462 partner): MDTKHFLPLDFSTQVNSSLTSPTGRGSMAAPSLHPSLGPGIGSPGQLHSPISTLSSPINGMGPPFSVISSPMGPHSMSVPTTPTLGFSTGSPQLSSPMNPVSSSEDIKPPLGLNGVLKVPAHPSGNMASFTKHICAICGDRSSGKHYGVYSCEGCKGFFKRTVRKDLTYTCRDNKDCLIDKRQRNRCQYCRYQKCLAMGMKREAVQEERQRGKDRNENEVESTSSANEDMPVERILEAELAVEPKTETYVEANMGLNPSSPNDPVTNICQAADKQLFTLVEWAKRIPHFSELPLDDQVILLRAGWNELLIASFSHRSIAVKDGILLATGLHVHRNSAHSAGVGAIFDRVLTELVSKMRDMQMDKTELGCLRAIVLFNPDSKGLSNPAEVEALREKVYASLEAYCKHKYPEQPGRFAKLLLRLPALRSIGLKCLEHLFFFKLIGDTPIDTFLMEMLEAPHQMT
Assay: Co-transfection assay (LXRE luciferase reporter), LXRβ
Assay type: cell-based
Settings: for EC50: CV-1 cells transfected with pCMX-hLXRβ and LXREx1-Tk-Luciferase, 20 hours incubation; for Emax: LXRβ co-transfection, relative to high control 1-(2,4-difluorobenzyl)-2-oxo-6-(4-phenoxyphenyl)-4-(trifluoromethyl)-1,2-dihydropyridine-3-carbonitrile, read-out: % Efficacy
Method in brief: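 Luciferase signal from an LXREx1-Tk reporter was measured after transfected CV-1 cells (full-length hLXRβ, endogenous RXR) were treated with compounds for 20 h at 37 °C, ≤0.5% DMSO. EC50 came from four-parameter fits of 11-point ½-log curves; % efficacy versus a reference agonist maximum.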

Row | SMILES | EC50 | Emax
1 | Cc1nc(C(C)(F)F)cn1-c1ccc(-c2cccc(S(C)(=O)=O)c2)cc1-n1nncc1-c1ccc(Cl)cc1 [Example 176, 5-(4-chlorophenyl)-1-{4-[4-(1,1-difluoroethyl)-2-methyl-1H-imidazol-1-yl]-3′-(methylsulfonyl)biphenyl-3-yl}-1H-1,2,3-triazole] | 792 nM | 68%
2 | Cc1nc(C(F)(F)F)cn1-c1ccc(-c2cccc(C(C)(C)C(N)=O)c2)cc1-n1nncc1Cc1ccc(Cl)cc1 [Example 119, 2-(3′-{5-[(4-chlorophenyl)methyl]-1H-1,2,3-triazol-1-yl}-4′-[2-methyl-4-(trifluoromethyl)-1H-imidazol-1-yl]biphenyl-3-yl)-2-methylpropanamide] | 820 nM | 85%
3 | Cc1nc(C(F)(F)F)cn1-c1ccc(-c2cccc(S(C)(=O)=O)c2)cc1-n1nncc1-c1ccc(Cl)cc1F [Example 39, 5-(4-chloro-2-fluorophenyl)-1-{3′-(methylsulfonyl)-4-[2-methyl-4-(trifluoromethyl)-1H-imidazol-1-yl]biphenyl-3-yl}-1H-1,2,3-triazole] | 860 nM | 92%
4 | Cc1nc(-c2cc(-c3cccc(S(C)(=O)=O)c3)ccc2-n2cc(C(F)(F)F)nc2C)c(-c2cccnc2C2CC2)o1 [Example 390, 5-(2-cyclopropylpyridin-3-yl)-2-methyl-4-(4-(2-methyl-4-(trifluoromethyl)-1H-imidazol-1-yl)-3′-(methylsulfonyl)biphenyl-3-yl)oxazole] | 2080 nM | 62%

The next compounds have a lower EC50 than those just listed; values first:

Row | EC50 | Emax | SMILES
5 | 489 nM | 90% | COCS(=O)(=O)c1cccc(-c2ccc(-n3cc(C(F)(F)F)nc3C)c(-n3nncc3-c3ccc(OC(F)(F)F)cc3)c2)c1 [Example 238, 1-(3′-((methoxymethyl)sulfonyl)-4-(2-methyl-4-(trifluoromethyl)-1H-imidazol-1-yl)-[1,1′-biphenyl]-3-yl)-5-(4-(trifluoromethoxy)phenyl)-1H-1,2,3-triazole]
6 | 410 nM | 85% | Cc1nc(C(F)(F)F)cn1-c1ccc(-c2cccc(S(C)(=O)=O)c2)cc1-c1oc(CCO)nc1-c1ccc2c(c1)OC(F)(F)O2 [Example 622, 2-(4-(2,2-difluorobenzo[d][1,3]dioxol-5-yl)-5-(4-(2-methyl-4-(trifluoromethyl)-1H-imidazol-1-yl)-3′-(methylsulfonyl)-[1,1′-biphenyl]-3-yl)oxazol-2-yl)ethanol]
7 | 73 nM | 64% | Cc1nc(-c2cc(-c3cccc(S(C)(=O)=O)c3)ccc2-n2cc(C(F)(F)F)nc2C)c(-c2ccc(OC(F)F)c(OC3CC3)c2)o1 [Example 386, 5-(3-cyclopropoxy-4-(difluoromethoxy)phenyl)-2-methyl-4-(4-(2-methyl-4-(trifluoromethyl)-1H-imidazol-1-yl)-3′-(methylsulfonyl)biphenyl-3-yl)oxazole]
8 | 67 nM | 48% | Cc1nc(-c2cc(-c3cc(F)c(CO)c(S(C)(=O)=O)c3)ccc2-n2cc(C(F)(F)F)nc2C)c(-c2ccc(SC(F)(F)F)cc2)o1 [Example 543]
9 | 47 nM | 90% | Cc1nc(-c2cc(-c3cc(F)c(CO)c(S(C)(=O)=O)c3)ccc2-n2cc(C(F)(F)F)nc2C)c(-c2ccc3c(c2)OC(F)(F)O3)o1 [Example 494, (3′-(5-(2,2-difluorobenzo[d][1,3]dioxol-5-yl)-2-methyloxazol-4-yl)-3-fluoro-4′-(2-methyl-4-(trifluoromethyl)-1H-imidazol-1-yl)-5-(methylsulfonyl)biphenyl-4-yl)methanol]
10 | 18 nM | 96% | CCc1nc(-c2cc(-c3cccc(S(C)(=O)=O)c3)ccc2-n2cc(C(F)(F)F)nc2C)c(-c2ccc(OC(F)(F)F)cc2)o1 [Example 555, 2-ethyl-4-(4-(2-methyl-4-(trifluoromethyl)-1H-imidazol-1-yl)-3′-(methylsulfonyl)-[1,1′-biphenyl]-3-yl)-5-(4-(trifluoromethoxy)phenyl)oxazole]

From patent US9834542B2, “LXR modulators” (BRISTOL-MYERS SQUIBB COMPANY, priority 2013, dated 2017)
